Laboratory results: patent US6025390A, “Heteroaromatic pentadienoic acid derivatives useful as inhibitors of bone resorption” (SmithKline Beecham SpA, priority 1996, dated 2000)

Target: Bafilomycin-Sensitive ATPase in Chicken Osteoclasts
Test: Inhibition of bafilomycin-sensitive ATPase activity in purified membrane vesicles (Pi release, malachite green)
Type: biochemical
Details: chicken osteoclast membranes
Method: Preparation of crude bone microsomes from calcium-starved egg-laying hens.
Vesicles were prepared from medullar bone obtained from tibiae and femurs of egg-laying hens which were calcium-starved for at least 15 days. Briefly, bone fragments were scraped with a 24 scalpel blade, suspended in 40 ml of isolation medium (0.2M sucrose, 50 mM KCl, 10 mM Hepes, 1 mM EGTA, 2 mM dithiotheitrol, pH 7.4) and filtered through a 100 μm pore size nylon mesh. The whole procedure was performed at 4° C. After homogenisation in a potter (20 strokes) in 40 ml of isolation medium an initial centrifugation (6,500×gmax ×20 min) was performed to remove mitochondria and lysosomes. The supernatant was centrifuged at 100,000×gmax for 1 hr and the pellet was collected in 1 ml of isolation medium, divided into 200 μl aliquots, immediately frozen in liquid nitrogen and stored at […]. The protein content was determined using a Biorad colourimetric kit according to Bradford [M. Bradford, Anal. Biochem., 72, 248 (1976)]. For the proton transport assay, 5-10 μl of membranes were used.
Purification of osteoclast membranes. 1 ml of crude microsomal vesicles prepared above were applied (about 0.2 ml per tube) on the top of a sucrose step-gradient consisting of 3.5 ml of 15%, 30% and 45% (w/w) sucrose in isolation medium and centrifuged at 280,000 gmax for 2 hours (SW 41 Ti rotor). After centrifugation the 30-45% sucrose interfaces were collected, diluted approx. 20-fold in isolation medium and pelletted at 100,000 gmax for 1 hour (SW 28 rotor). The pellet was then resuspended in 1 ml of isolation medium, aliquoted and frozen in liquid N2 and stored at -80° C. until used.
Inhibition of bafilomycin-sensitive ATPase activity was assessed in purified membrane vesicles by measuring the release of inorganic phosphate (Pi) during 30 min of incubation at 37° C. in a 96-well plate either in the presence or in the absence of bafilomycin A1. The reaction medium contained 1 mM ATP, 10 mM HEPES-Tris pH 8, 50 MM KCl, 5 uM valinomycin, 5 uM nigericin, 1 mM CDTA-Tris, 100 uM ammonium molybdate, 0.2M sucrose and membranes (20 ug protein/ml). The reaction was initiated by MgSO4 (8-arm pipette) and stopped, after 30 min, by addition of 4 volumes of the malachite green reagent (96-arm pipette) prepared according to Chan [Anal. Biochem. 157, 375 (1986)]. Absorbance at 650 nm was measured after 2 min using a microplate reader. Results are expressed as μmol (Pi)×mg protein^-1 ×hour^-1 and, for each experiment, represent the mean±sem of triplicates.

**Q.** For CO/C(=C\C=C\c1cc2ccccc2o1)C(=O)NC1CC(C)(C)NC(C)(C)C1 [Example 3, (2Z,4E)-5-(Benzofuran-2-yl)-2-methoxy-N-((2,2,6,6-tetramethyl)-piperidin-4-yl)-2,4-pentadienamide], which IC50 is on record?
**A.** The IC50 was 8.6 µM.

**Q.** For CO/C(=C\C=C\c1cc2ccccc2o1)C(=O)NC1CC(C)(C)N(C)C(C)(C)C1 [Example 5, (2Z,4E)-5-(Benzofuran-2-yl)-2-methoxy-N[(1,2,2,6,6-pentamethyl)-piperidin-4-yl]-2,4-pentadienamide], which IC50 is on record?
**A.** Its IC50 is 11 µM.

**Q.** With CO/C(=C\C=C\c1cc2cc(Cl)ccc2o1)C(=O)NC1CC(C)(C)N(C)C(C)(C)C1 [Example 8] as the compound, how does the IC50 read?
**A.** The IC50 was 0.5 µM.

**Q.** For CCN(CC)CCCNC(=O)/C(=C/C=C/c1cc2cc(Cl)ccc2o1)OC [Example 9, (2Z,4E)-5-(5-Chlorobenzofuran-2-yl)-N-(3-diethylaminopropyl)-2-methoxy-2,4-pentadienamide], which IC50 is on record?
**A.** Its IC50 is 10 µM.

**Q.** Which IC50 does the source give for CO/C(=C\C=C\c1cc2ccccc2s1)C(=O)NC1CC(C)(C)N(C)C(C)(C)C1 [Example 12, (2Z,4E)-5-(Benzothiophen-2-yl)-2-methoxy-N-[(1,2,2,6,6-pentamethyl)-piperidin-4-yl]-2,4-pentadienamide] here?
**A.** Its IC50 is 10.6 µM.

System: osteoclast proton pump
Test: not given
Details: avian osteoclast membrane vesicles, ATP-driven acidification; cited from earlier work

**Q.** With CCN1C(=O)C=CC1=O [N-ethylmaleimide] as the compound, how does the “inhibition of proton transport” value read?
**A.** The value was “inhibited”.

**Q.** Which “inhibition of proton transport” value does the source give for Cc1nc2c(OCc3ccccc3)cccn2c1CC#N [SCH 28080] here?
**A.** The value was “not inhibited”.

**Q.** Which “inhibition of proton transport” value does the source give for CO/C1=C\C(C)=C\[C@@H](C)[C@@H](O)[C@@H](C)C/C(C)=C/C=C/[C@H](OC)[C@@H]([C@@H](C)[C@@H](O)[C@H](C)[C@@]2(O)C[C@@H](O)[C@H](C)[C@@H](C(C)C)O2)OC1=O [bafilomycin A1] here?
**A.** The value was “inhibited”.

**Q.** With COc1ccc2[nH]c([S+]([O-])Cc3ncc(C)c(OC)c3C)nc2c1 (stereo not drawn) [omeprazole] as the compound, how does the “inhibition of proton transport” value read?
**A.** Its value is “not inhibited”.

**Q.** Which “inhibition of proton transport” value does the source give for C[C@@H]1O[C@@H](O[C@H]2C[C@@H](O)[C@]3(CO)[C@H]4[C@H](O)C[C@]5(C)[C@@H](C6=CC(=O)OC6)CC[C@]5(O)[C@@H]4CC[C@]3(O)C2)[C@H](O)[C@H](O)[C@H]1O [ouabain] here?
**A.** Its value is “not inhibited”.

**Q.** Which “inhibition of proton transport” value does the source give for [Na+].[Na+].[Na+].[O]=[V]([O-])([O-])[O-] [sodium orthovanadate] here?
**A.** The value was “not inhibited”.

System: osteoclast cultures
Test: not given
Details: cited from earlier work

**Q.** With CO/C1=C\C(C)=C\[C@@H](C)[C@@H](O)[C@@H](C)C/C(C)=C/C=C/[C@H](OC)[C@@H]([C@@H](C)[C@@H](O)[C@H](C)[C@@]2(O)C[C@@H](O)[C@H](C)[C@@H](C(C)C)O2)OC1=O [bafilomycin A1] as the compound, how does the “inhibition of bone resorption” value read?
**A.** Its value is “able to inhibit bone resorption”.
